14 compounds from patent US20250205344A1, “2,4-DIOXOTETRAHYDROPYRIMIDINYL DERATIVES AS DEGRONS IN PROTACS” (GLAXOSMITHKLINE INTELLECTUAL PROPERTY DEVELOPMENT LIMITED, priority 2022, published 2025) can be followed below.

Structures can show the parent of a compound that is named as a salt.

For the test, the target named is T1, Androgen Receptor (Homo sapiens, UniProt P10275, T878A).
T1 construct: the AR gene was modified, using CRISPR/Cas9 editing, so the expressed AR protein included an 11 amino acid HiBiT tag; endogenous in cells; host or cells: clonal LnCaP-derived line, AR gene edited by CRISPR/Cas9
The test can be described thus: Androgen Receptor Degradation Assay (Nano-Glo HiBiT). Conditions: LNCaP, 18 h, HiBiT-tagged AR in human LnCaP cells, read-out: mean asymptote max. The class given is cell-based. As to the method: Degradation of Androgen Receptor protein in human LnCaP cells treated with PROTACs was quantified using the Nano-Glo® HiBiT Lytic Detection System (Promega) in 384 well assay plate format. A clonal LnCaP derived cell line was first established in which the AR gene was modified, using CRISPR/Cas9 editing, so the expressed AR protein included an 11 amino acid HiBiT tag at its amino-terminus. 10 mM DMSO stock solutions of PROTACs were prepared and diluted across an 11 concentration, 3 fold increment range, and 25 nL dispensed into a white opaque bottomed 384 well assay plate (Thermofisher) using an acoustic ECHO dispenser (Labcyte). […] For the assay, cells were detached from flask and resuspended with assay medium (FluoroBrite™ DMEM supplemented with 10% heat inactivated FBS, penicillin 50 U/mL and streptomycin 50 ug/mL (Thermofisher)). The cell suspension was centrifuged at 400 g for 5 min and the pellet resuspended in assay medium. 25 μL of cell suspension containing 10,000 cells was dispensed into each well of the assay plate containing the test compounds, which was then incubated for 18 h at 37° C./5% CO2. Control wells were included on each assay plate, with assay medium without cells being the no AR remaining 100% effect control, and cells treated with DMSO vehicle only, without PROTAC, the 0% effect control. 25 μL of Nano-Glo® HiBiT lysis buffer supplemented with LgBiT protein and Nano-Glo® substrate (Promega) was added to each well and the plate shaken at 500 rpm for 10 min at room temperature. The intensity of luminescence was measured using a PHERAstar microplate reader (BMG Labtech) and the % AR protein remaining in each well calculated by normalising the raw luminescence value to the above control wells. Parameters corresponding to the potency and efficacy estimates of the PROTACs were obtained from these normalised luminescence values using software (IDBS ActivityBase). These included the DC50 and the Dmax estimates. Two versions of the DC50, called relative DC50 and absolute DC50, were typically generated. These are the inflection point of a fitted 4 parameter sigmoidal response curve and the interpolated concentration of PROTAC corresponding to 50% of the protein being degraded, respectively. The Dmax parameter was the maximum experimentally observed degradation and the asymptote max parameter the fitted response curve asymptote maximum.

T1 sequence (P10275 whole entry T878A): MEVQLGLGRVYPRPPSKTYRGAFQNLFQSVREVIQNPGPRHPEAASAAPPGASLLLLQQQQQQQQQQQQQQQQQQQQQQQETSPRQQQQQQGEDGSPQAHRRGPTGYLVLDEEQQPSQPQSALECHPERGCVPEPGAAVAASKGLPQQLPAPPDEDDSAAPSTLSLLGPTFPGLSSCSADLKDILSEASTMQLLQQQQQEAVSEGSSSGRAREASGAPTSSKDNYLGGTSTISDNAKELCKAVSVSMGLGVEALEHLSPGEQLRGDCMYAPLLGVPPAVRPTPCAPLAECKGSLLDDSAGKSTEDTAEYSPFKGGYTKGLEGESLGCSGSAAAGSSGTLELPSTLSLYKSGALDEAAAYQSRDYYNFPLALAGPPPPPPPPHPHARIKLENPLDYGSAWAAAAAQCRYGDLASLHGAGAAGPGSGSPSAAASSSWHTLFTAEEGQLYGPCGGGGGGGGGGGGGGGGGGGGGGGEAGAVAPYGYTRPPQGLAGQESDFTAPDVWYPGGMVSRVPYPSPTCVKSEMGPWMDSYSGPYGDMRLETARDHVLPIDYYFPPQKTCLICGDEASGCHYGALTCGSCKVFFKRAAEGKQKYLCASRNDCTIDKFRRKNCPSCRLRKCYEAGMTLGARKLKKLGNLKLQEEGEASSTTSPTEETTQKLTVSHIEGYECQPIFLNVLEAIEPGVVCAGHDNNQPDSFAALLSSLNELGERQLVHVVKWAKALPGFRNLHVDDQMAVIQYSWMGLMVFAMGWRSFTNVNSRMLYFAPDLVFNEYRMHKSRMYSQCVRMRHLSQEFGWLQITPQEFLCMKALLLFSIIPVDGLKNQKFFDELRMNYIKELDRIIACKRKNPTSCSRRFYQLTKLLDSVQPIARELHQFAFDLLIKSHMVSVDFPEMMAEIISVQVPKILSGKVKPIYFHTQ
T1 sequence (Q96SW2 whole entry partner): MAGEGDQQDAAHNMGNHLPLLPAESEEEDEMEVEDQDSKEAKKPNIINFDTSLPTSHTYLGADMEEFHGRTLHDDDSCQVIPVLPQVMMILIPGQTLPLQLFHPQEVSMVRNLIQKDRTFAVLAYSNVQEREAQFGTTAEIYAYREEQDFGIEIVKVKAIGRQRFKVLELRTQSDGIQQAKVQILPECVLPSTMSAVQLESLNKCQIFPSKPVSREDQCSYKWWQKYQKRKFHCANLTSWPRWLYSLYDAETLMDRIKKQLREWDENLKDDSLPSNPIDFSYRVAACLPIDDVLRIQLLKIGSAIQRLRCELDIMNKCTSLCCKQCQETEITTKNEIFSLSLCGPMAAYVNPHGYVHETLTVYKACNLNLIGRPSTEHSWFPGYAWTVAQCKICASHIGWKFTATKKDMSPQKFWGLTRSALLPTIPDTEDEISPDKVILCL
T1 sequence (Q16531 whole entry partner): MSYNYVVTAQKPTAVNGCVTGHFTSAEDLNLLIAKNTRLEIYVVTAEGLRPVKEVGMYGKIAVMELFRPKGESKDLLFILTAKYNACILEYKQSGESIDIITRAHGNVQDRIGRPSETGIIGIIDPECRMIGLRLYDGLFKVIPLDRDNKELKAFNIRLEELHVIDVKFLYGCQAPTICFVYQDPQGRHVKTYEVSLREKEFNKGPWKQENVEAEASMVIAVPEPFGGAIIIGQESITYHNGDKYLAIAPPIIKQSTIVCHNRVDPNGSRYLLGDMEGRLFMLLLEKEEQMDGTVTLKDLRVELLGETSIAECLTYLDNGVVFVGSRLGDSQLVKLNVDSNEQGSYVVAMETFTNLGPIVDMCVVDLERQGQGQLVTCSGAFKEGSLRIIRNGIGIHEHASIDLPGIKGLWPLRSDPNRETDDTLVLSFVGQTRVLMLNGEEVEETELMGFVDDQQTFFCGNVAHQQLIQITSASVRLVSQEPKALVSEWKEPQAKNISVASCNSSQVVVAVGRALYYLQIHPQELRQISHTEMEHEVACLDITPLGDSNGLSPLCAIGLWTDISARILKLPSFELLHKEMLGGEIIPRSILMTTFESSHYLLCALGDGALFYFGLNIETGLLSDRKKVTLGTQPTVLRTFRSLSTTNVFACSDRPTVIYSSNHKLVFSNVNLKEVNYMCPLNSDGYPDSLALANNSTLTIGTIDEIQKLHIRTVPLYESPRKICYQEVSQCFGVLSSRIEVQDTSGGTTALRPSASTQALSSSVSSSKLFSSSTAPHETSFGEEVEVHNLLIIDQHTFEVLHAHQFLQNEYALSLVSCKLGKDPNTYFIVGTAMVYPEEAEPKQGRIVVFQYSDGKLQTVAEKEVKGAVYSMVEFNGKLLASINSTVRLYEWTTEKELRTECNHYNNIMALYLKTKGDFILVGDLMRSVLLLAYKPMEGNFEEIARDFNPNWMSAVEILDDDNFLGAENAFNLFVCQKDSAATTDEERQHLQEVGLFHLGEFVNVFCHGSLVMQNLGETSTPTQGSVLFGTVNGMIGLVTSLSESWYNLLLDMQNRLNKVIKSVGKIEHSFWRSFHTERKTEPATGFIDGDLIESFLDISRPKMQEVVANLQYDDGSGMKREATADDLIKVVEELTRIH

For `C[C@@H]1CN(c2ccc(C#N)c(Cl)c2)[C@@H](C)CN1C(=O)c1cnc(N2CCC(CN3CCC(n4ccc5c(N6CCC(=O)NC6=O)cncc54)CC3)CC2)cn1` [EAR147, 2-Chloro-4-((2S,5R)-4-(5-(4-((4-(4-(2,4-dioxotetrahydropyrimidin-1(2H)-yl)-1H-pyrrolo[2,3-c]pyridin-1-yl)piperidin-1-yl)methyl)piperidin-1-yl)pyrazine-2-carbonyl)-2,5-dimethylpiperazin-1-yl)benzonitrile], the Dmax is ≥ 50%.

For `N#Cc1ccc(O[C@H]2CC[C@H](NC(=O)c3cnc(N4CCC(CN5CCC(n6ncc7c(N8CCC(=O)NC8=O)cc(F)cc76)CC5)CC4)cn3)CC2)cc1Cl` [EAR217, N-((1r,4r)-4-(3-chloro-4-cyanophenoxy)cyclohexyl)-5-(4-((4-(4-(2,4-dioxotetrahydropyrimidin-1(2H)-yl)-6-fluoro-1H-indazol-1-yl)piperidin-1-yl)methyl)piperidin-1-yl)pyrazine-2-carboxamide hydrochloride], the Dmax was ≥ 50%.

As to `N#Cc1ccc(O[C@H]2CC[C@H](NC(=O)c3ccc(N4CCC(CN5CCC(n6ccc7c(N8CCC(=O)NC8=O)cccc76)CC5)CC4)nn3)CC2)cc1C(F)(F)F` [EAR24, N-((1r,4r)-4-(4-Cyano-3-(trifluoromethyl)phenoxy)cyclohexyl)-6-(4-((4-(4-(2,4-dioxotetrahydropyrimidin-1(2H)-yl)-1H-indol-1-yl)piperidin-1-yl)methyl)piperidin-1-yl)pyridazine-3-carboxamide], the Dmax was ≥ 50%.

Take `C[C@@H]1CN(c2ccc(C#N)c(Cl)c2)[C@@H](C)CN1C(=O)c1ccc(N2CCC(CN3CCC(n4ncc5c(N6CCC(=O)NC6=O)cncc54)CC3)CC2)nn1` [EAR146, 2-Chloro-4-((2S,5R)-4-(6-(4-((4-(4-(2,4-dioxotetrahydropyrimidin-1(2H)-yl)-1H-pyrazolo[3,4-c]pyridin-1-yl)piperidin-1-yl)methyl)piperidin-1-yl)pyridazine-3-carbonyl)-2,5-dimethylpiperazin-1-yl)benzonitrile]: the Dmax was ≥ 50%.

In the case of `N#Cc1ccc(O[C@H]2CC[C@H](NC(=O)c3cnc(N4CCC(CN5CCC(n6ncc7c(N8CCC(=O)NC8=O)cccc76)CC5)CC4)cn3)CC2)cc1C(F)(F)F` [EAR38, N-((1r,4r)-4-(4-Cyano-3-(trifluoromethyl)phenoxy)cyclohexyl)-5-(4-((4-(4-(2,4-dioxotetrahydropyrimidin-1(2H)-yl)-1H-indazol-1-yl)piperidin-1-yl)methyl)piperidin-1-yl)pyrazine-2-carboxamide hydrochloride], the Dmax is ≥ 50%.

With `N#Cc1ccc(O[C@H]2CC[C@H](NC(=O)c3ccc(N4CCC(CN5CCC(n6ccc7c(N8CCC(=O)NC8=O)cc(Cl)cc76)CC5)CC4)nn3)CC2)cc1Cl` [EAR32, 6-(4-((4-(6-Chloro-4-(2,4-dioxotetrahydropyrimidin-1(2H)-yl)-1H-indol-1-yl)piperidin-1-yl)methyl)piperidin-1-yl)-N-((1r,4r)-4-(3-chloro-4-cyanophenoxy)cyclohexyl)pyridazine-3-carboxamide hydrochloride], the Dmax was ≥ 50%.

On to `CC1(C)[C@H](NC(=O)c2ccc(N3CCC(CN4CCC(n5ccc6c(N7CCC(=O)NC7=O)cccc65)CC4)CC3)nn2)C(C)(C)[C@H]1Oc1ccc(C#N)c(Cl)c1` [EAR55, N-((1r,3r)-3-(3-Chloro-4-cyanophenoxy)-2,2,4,4-tetramethylcyclobutyl)-6-(4-((4-(4-(2,4-dioxotetrahydropyrimidin-1(2H)-yl)-1H-indol-1-yl)piperidin-1-yl)methyl)piperidin-1-yl)pyridazine-3-carboxamide], for which the Dmax is ≥ 50%.

As for `N#Cc1ccc(O[C@H]2CC[C@H](NC(=O)c3cnc(N4CCC(CN5CCC(n6ccc7c(N8CCC(=O)NC8=O)nccc76)CC5)CC4)cn3)CC2)cc1Cl` [EAR182, N-((1r,4r)-4-(3-Chloro-4-cyanophenoxy)cyclohexyl)-5-(4-((4-(4-(2,4-dioxotetrahydropyrimidin-1(2H)-yl)-1H-pyrrolo[3,2-c]pyridin-1-yl)piperidin-1-yl)methyl)piperidin-1-yl)pyrazine-2-carboxamide], the Dmax is ≥ 50%.

For `N#Cc1ccc(O[C@H]2CC[C@H](NC(=O)c3ccc(N4CCC(CN5CCC(n6ccc7c(N8CCC(=O)NC8=O)cncc76)CC5)CC4)nc3)CC2)cc1Cl` [EAR50, N-((1r,4r)-4-(3-Chloro-4-cyanophenoxy)cyclohexyl)-6-(4-((4-(4-(2,4-dioxotetrahydropyrimidin-1(2H)-yl)-1H-pyrrolo[2,3-c]pyridin-1-yl)piperidin-1-yl)methyl)piperidin-1-yl)nicotinamide hydrochloride], the Dmax was ≥ 50%.

For the compound `CC1(CN2CCC(n3ncc4c(N5CCC(=O)NC5=O)cccc43)CC2)CCN(c2ccc(C(=O)N[C@H]3CC[C@H](Oc4ccc(C#N)c(Cl)c4)CC3)nn2)C1` (some centres unmarked) [EAR241, N-((1r,4r)-4-(3-chloro-4-cyanophenoxy)cyclohexyl)-6-(3-((4-(4-(2,4-dioxotetrahydropyrimidin-1(2H)-yl)-1H-indazol-1-yl)piperidin-1-yl)methyl)-3-methylpyrrolidin-1-yl)pyridazine-3-carboxamide], the Dmax was ≥ 50%.

Take `CC(C)n1ccc2c(N3CCC(=O)NC3=O)cc(C(=O)N3CCC4(CCCN(CCCCCc5ccc(C(=O)N[C@H]6CC[C@H](Oc7ccc(C#N)c(Cl)c7)CC6)cc5)C4)CC3)cc21` [EAR83, N-((1r,4r)-4-(3-Chloro-4-cyanophenoxy)cyclohexyl)-4-(5-(9-(4-(2,4-dioxotetrahydropyrimidin-1(2H)-yl)-1-isopropyl-1H-indole-6-carbonyl)-2,9-diazaspiro[5.5]undecan-2-yl)pentyl)benzamide]: the Dmax is ≥ 50%.

As to `CC1(C)C(=O)N(c2ccc(C#N)c(C(F)(F)F)c2)C(=S)N1c1ccc(N2CCC(CN3CCC(n4ncc5c(N6CCC(=O)NC6=O)cccc54)CC3)CC2)cc1` [EAR95, 4-(3-(4-(4-((4-(4-(2,4-Dioxotetrahydropyrimidin-1(2H)-yl)-1H-indazol-1-yl)piperidin-1-yl)methyl)piperidin-1-yl)phenyl)-4,4-dimethyl-5-oxo-2-thioxoimidazolidin-1-yl)-2-(trifluoromethyl)benzonitrile], the Dmax is ≥ 50%.

As for `N#Cc1ccc(O[C@H]2CC[C@H](NC(=O)c3ccc(N4CCN(CC(=O)N5CCC(n6ncc7c(N8CCC(=O)NC8=O)cccc76)CC5)CC4)nn3)CC2)cc1Cl` [EAR158, N-((1r,4r)-4-(3-Chloro-4-cyanophenoxy)cyclohexyl)-6-(4-(2-(4-(4-(2,4-dioxotetrahydropyrimidin-1(2H)-yl)-1H-indazol-1-yl)piperidin-1-yl)-2-oxoethyl)piperazin-1-yl)pyridazine-3-carboxamide], the Dmax is ≥ 50%.

As to `N#Cc1ccc(O[C@H]2CC[C@H](NC(=O)c3ccc(N4CCN(CC(=O)N5CCC(n6ccc7c(N8CCC(=O)NC8=O)cccc76)CC5)CC4)nn3)CC2)cc1Cl` [EAR134, N-((1r,4r)-4-(3-Chloro-4-cyanophenoxy)cyclohexyl)-6-(4-(2-(4-(4-(2,4-dioxotetrahydropyrimidin-1(2H)-yl)-1H-indol-1-yl)piperidin-1-yl)-2-oxoethyl)piperazin-1-yl)pyridazine-3-carboxamide], the Dmax is ≥ 50%.
